Data on eight compounds can be found in ChEMBL document CHEMBL5291721, “A preclinical secondary pharmacology resource illuminates target-adverse drug reaction associations of marketed drugs” (Nat Commun, 2023).

The target in one experiment is T1, Endothelin-1 receptor (Homo sapiens, UniProt P25101).
T1 sequence (P25101 whole entry): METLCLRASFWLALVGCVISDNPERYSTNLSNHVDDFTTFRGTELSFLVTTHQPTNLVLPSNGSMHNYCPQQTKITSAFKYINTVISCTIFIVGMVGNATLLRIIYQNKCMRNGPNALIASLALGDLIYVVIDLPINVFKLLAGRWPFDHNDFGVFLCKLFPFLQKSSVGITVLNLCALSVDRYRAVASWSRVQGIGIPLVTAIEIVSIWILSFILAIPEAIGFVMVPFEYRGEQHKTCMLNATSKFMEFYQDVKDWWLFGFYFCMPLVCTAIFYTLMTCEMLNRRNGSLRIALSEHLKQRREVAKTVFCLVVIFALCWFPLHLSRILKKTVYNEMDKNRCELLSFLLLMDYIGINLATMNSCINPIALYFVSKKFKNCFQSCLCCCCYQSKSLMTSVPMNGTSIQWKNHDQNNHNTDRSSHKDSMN

The next experiment has as its target T2, Estrogen receptor (Homo sapiens, UniProt P03372).
T2 sequence (P03372 whole entry): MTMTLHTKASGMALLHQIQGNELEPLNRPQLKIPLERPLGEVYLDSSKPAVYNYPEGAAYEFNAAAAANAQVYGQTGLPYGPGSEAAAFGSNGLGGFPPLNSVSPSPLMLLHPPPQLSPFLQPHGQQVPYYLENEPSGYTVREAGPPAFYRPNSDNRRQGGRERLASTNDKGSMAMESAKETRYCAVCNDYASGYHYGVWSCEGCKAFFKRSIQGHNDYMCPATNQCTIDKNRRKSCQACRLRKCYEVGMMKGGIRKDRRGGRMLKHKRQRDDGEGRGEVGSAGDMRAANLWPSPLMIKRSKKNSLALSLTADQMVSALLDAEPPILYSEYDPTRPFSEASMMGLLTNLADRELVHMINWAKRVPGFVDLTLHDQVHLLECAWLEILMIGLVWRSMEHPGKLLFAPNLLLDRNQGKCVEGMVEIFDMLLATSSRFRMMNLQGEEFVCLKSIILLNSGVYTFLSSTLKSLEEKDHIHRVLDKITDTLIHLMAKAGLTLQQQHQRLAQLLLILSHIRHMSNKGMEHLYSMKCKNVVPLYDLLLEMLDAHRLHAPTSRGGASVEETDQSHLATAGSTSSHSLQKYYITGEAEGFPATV

Experiment [1] has as its target T3, Alpha-2A adrenergic receptor (Homo sapiens, UniProt P08913).
T3 sequence (P08913 whole entry): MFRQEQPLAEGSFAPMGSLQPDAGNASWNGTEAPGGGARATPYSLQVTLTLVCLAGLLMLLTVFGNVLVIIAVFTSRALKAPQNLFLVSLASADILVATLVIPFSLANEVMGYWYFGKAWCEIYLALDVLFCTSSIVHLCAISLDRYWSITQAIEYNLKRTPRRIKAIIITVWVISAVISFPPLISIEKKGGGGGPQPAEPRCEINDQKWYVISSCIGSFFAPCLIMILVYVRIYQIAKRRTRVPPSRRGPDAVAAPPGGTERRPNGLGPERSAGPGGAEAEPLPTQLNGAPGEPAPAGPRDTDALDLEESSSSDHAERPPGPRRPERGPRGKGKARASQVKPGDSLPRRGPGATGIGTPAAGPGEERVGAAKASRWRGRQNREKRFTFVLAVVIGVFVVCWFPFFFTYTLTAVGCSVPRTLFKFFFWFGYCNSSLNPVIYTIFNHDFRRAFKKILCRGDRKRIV
It counts as functional, cell-based.

The target of experiment [2] is 5-hydroxytryptamine receptor 2B (Homo sapiens, UniProt P41595). It counts as functional, cell-based.
Sequence of 5-hydroxytryptamine receptor 2B (P41595 whole entry): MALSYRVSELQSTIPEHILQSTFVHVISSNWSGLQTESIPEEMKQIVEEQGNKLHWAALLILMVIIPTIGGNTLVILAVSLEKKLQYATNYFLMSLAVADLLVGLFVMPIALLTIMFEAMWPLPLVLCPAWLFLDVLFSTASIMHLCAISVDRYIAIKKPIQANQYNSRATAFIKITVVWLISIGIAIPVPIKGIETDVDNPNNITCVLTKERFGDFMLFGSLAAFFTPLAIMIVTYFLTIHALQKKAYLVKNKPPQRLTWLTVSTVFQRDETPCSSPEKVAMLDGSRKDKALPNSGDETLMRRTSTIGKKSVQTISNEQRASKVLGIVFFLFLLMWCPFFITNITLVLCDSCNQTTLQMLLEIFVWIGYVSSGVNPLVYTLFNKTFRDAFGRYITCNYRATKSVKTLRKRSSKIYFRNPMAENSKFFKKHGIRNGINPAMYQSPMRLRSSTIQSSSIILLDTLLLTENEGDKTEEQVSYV
The target of experiment [3] is T4, Alpha-1A adrenergic receptor (Homo sapiens, UniProt P35348).
T4 sequence (P35348 whole entry): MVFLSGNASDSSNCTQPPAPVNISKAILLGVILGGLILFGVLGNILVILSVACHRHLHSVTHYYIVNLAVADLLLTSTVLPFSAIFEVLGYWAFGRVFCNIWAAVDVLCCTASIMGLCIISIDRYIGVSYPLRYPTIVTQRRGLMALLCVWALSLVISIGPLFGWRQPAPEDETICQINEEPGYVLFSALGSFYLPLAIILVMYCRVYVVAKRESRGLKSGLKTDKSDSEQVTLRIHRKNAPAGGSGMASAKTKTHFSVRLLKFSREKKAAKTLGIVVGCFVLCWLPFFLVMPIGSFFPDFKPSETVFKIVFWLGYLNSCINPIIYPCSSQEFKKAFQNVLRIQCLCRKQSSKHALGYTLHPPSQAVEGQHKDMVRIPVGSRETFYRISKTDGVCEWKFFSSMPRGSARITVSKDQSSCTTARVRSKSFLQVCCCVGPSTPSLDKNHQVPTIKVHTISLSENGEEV
Type of experiment: functional, cell-based.

The target of experiment [4] is T5, Cannabinoid receptor 1 (Homo sapiens, UniProt P21554). It counts as functional, cell-based.
T5 sequence (P21554 whole entry): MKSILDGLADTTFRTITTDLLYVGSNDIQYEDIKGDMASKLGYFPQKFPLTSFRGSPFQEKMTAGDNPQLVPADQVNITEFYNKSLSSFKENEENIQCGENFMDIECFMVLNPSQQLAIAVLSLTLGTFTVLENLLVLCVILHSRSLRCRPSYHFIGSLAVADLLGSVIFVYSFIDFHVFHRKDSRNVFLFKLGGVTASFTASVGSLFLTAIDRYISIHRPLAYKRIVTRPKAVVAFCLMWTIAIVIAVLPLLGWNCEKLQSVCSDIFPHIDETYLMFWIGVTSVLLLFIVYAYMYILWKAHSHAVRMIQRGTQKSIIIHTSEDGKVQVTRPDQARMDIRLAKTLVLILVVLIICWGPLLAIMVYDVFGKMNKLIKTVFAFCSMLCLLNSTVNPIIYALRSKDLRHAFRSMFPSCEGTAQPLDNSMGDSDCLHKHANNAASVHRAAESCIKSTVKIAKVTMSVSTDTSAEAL
Experiment [5] has as its target T5, Cannabinoid receptor 1. It counts as functional, cell-based. The source holds these as a separate data set.
Experiment [6] deals with cGMP-inhibited 3',5'-cyclic phosphodiesterase 3A (Homo sapiens, UniProt Q14432). Type of experiment: functional.
Sequence of cGMP-inhibited 3',5'-cyclic phosphodiesterase 3A (Q14432 whole entry): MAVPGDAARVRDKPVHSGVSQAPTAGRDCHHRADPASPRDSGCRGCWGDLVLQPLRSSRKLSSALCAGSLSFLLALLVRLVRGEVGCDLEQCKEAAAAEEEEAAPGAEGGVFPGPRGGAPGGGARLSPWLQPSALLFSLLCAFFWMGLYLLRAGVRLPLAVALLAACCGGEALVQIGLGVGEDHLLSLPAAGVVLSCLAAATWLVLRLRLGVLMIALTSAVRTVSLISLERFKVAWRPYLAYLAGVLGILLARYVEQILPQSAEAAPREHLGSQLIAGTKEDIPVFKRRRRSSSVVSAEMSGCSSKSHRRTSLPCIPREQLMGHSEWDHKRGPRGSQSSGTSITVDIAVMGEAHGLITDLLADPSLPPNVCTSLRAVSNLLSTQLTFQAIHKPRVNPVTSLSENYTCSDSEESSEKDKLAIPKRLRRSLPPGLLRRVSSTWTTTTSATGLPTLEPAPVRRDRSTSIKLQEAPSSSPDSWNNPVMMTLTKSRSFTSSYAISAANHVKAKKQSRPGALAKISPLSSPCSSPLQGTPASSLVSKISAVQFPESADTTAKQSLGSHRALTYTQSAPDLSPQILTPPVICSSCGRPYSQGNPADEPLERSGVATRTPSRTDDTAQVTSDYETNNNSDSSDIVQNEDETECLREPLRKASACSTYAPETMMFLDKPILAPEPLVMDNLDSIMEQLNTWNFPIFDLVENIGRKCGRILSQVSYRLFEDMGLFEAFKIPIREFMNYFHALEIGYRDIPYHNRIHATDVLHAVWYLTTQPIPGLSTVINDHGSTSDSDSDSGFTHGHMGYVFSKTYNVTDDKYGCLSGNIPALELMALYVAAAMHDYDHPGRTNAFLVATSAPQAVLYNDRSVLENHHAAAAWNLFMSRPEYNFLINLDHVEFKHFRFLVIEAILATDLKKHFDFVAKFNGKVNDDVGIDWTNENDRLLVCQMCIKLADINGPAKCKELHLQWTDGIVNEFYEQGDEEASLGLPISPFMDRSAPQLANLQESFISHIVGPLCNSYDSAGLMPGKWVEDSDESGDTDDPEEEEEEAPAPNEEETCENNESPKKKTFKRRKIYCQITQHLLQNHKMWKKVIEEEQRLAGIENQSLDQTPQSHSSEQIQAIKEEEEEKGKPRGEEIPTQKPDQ
In experiment [7] the target is Voltage-dependent L-type calcium channel subunit alpha-1C (Rattus norvegicus, UniProt P22002). Type of experiment: functional.
Sequence of Voltage-dependent L-type calcium channel subunit alpha-1C (P22002 whole entry): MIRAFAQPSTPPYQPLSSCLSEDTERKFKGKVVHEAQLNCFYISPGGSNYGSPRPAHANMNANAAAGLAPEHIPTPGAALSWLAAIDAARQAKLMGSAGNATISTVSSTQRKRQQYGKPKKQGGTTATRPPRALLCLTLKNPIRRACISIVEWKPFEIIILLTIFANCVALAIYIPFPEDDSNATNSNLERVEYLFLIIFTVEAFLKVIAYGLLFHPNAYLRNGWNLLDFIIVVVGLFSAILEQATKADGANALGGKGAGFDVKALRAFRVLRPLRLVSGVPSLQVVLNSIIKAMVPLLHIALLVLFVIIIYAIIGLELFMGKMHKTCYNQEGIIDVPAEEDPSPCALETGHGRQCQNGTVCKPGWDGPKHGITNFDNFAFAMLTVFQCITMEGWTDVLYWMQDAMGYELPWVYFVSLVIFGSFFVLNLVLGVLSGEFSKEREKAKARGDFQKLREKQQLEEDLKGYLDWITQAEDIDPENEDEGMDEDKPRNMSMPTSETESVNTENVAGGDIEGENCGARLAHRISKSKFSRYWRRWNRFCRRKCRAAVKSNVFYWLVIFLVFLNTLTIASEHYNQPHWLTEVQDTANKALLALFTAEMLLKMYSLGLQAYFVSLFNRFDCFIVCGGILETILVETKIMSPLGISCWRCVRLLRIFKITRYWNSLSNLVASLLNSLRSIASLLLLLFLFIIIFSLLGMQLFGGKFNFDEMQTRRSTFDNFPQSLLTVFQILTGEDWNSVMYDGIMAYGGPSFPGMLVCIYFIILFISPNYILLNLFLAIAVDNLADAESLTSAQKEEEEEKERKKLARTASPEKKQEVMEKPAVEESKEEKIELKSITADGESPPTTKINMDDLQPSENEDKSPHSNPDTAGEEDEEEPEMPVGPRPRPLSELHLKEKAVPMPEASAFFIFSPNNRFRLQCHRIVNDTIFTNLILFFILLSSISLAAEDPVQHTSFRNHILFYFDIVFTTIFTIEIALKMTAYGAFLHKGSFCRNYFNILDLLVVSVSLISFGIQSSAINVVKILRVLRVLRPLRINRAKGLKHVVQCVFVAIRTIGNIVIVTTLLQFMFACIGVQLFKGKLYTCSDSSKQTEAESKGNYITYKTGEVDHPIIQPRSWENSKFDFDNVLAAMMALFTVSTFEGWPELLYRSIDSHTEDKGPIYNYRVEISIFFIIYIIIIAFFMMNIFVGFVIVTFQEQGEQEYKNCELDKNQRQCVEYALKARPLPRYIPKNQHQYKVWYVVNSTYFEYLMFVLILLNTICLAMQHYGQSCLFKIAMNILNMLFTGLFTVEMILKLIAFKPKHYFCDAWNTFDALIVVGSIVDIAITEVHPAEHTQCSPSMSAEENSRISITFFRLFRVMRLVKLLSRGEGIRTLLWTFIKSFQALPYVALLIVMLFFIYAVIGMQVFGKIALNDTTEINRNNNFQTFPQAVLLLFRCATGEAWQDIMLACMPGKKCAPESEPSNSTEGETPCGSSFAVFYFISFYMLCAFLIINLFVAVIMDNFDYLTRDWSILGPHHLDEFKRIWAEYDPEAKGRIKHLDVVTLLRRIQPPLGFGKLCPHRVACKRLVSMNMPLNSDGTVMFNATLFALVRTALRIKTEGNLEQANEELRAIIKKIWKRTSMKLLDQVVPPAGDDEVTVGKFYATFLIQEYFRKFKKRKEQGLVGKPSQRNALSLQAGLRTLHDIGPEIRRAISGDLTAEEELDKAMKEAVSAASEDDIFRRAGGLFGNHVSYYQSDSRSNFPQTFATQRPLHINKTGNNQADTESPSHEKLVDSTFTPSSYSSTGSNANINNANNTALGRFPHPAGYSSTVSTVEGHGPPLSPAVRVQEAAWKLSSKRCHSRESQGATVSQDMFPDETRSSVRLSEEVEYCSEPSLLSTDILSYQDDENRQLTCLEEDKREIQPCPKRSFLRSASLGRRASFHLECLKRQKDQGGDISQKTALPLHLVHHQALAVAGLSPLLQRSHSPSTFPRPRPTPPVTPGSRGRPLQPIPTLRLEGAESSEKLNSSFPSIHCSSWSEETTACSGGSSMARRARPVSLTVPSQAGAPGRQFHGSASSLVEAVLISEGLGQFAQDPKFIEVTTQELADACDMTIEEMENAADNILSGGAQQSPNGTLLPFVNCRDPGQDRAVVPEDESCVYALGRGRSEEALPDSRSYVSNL
In experiment [8] the target is T6, Gastrin/cholecystokinin type B receptor (Homo sapiens, UniProt P32239).
T6 sequence (P32239 whole entry): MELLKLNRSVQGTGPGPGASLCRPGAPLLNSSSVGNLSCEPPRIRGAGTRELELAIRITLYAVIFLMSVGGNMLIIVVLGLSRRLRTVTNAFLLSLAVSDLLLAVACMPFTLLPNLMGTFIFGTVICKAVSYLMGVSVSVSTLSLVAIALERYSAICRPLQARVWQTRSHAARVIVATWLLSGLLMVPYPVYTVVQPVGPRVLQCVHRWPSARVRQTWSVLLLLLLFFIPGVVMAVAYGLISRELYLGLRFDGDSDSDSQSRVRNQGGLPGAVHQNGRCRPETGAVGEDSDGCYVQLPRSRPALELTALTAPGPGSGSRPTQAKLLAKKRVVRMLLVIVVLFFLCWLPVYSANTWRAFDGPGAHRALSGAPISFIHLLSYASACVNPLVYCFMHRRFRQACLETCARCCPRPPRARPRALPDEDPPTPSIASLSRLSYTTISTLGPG
Also: assay procedure not described here.

On to `C#Cc1cccc(Nc2ncnc3cc(OCCOC)c(OCCOC)cc23)c1` [ERLOTINIB], for which the AC50 (on Endothelin-1 receptor; on Estrogen receptor; in [1]; in experiment [2]; in [3]; at Cannabinoid receptor 1 [4]) was above 30 µM each time. For the same compound, the AC50 (in general, the midpoint of the concentration-response curve, whichever way the signal moves) on Cannabinoid receptor 1 [5] was above 10 µM; in experiment [6], above 30 µM.

`CC(=O)/N=c1/sc(S(N)(=O)=O)nn1C` [METHAZOLAMIDE]: the AC50 was above 30 µM at Estrogen receptor; above 10 µM in experiment [1]; above 10 µM in experiment [2]; above 30 µM in experiment [3]; above 10 µM in experiment [7]; above 30 µM in experiment [6].

On to `CC(C)(C)C(=O)NCCCC(=O)O` [PIVAGABINE], for which the AC50 (at Estrogen receptor; in [3]) was above 30 µM throughout.

Consider `CC(C)[N+](C)(CCOC(=O)C1c2ccccc2Oc2ccccc21)C(C)C` [PROPANTHELINE], for which the AC50 (at Estrogen receptor; in experiment [3]) was above 30 µM throughout.

Turning to `CN(C)C(=O)c1nc(CNC(=O)CN)n(-c2ccc(Cl)cc2C(=O)c2ccccc2Cl)n1` [RILMAZAFONE], the AC50 (at Estrogen receptor; in experiment [3]) was above 30 µM throughout.

In the case of `NC(=O)NS(=O)(=O)c1ccc(N)cc1` [SULFACARBAMIDE], the AC50 (on Estrogen receptor; in experiment [3]) was above 30 µM throughout.

Regarding `CC1(C)O[C@@H]2[C@@H](CO[C@@]3(COS(N)(=O)=O)OC(C)(C)O[C@@H]23)O1` [TOPIRAMATE], the AC50 is above 30 µM at Endothelin-1 receptor; above 30 µM on Estrogen receptor; above 10 µM in [1]; above 10 µM in experiment [2]; above 30 µM in experiment [8]; above 30 µM in [3]. Further, the AC50 on Cannabinoid receptor 1 [4] is above 30 µM; on Cannabinoid receptor 1 [5], above 30 µM; in experiment [7] it was above 10 µM; in experiment [6], above 30 µM.

In the case of `NCCc1ccc(O)cc1` [TYRAMINE], the AC50 (on Estrogen receptor; in experiment [3]) was above 30 µM each time.
